Results as given in patent US20140235548A1, “COMPOSITIONS AND METHODS FOR JAMM PROTEIN INHIBITION” (Cleave Biosciences, Inc., priority 2011, published 2014).
Where two headings read alike, the source gives them in different places. Where a SMILES comes first, the peptide text is derived from it. The star is where a group is joined. Cbz = O=C(OCc1ccccc1)*

Legend:
[1] = molecular target: T1, CSN5 (Homo sapiens, UniProt Q92905); experiment: Csn5 fluorescence polarization assay: release of Nedd8OG from Cul1-Nedd8OG / SCF^Skp2-Nedd8OG by CSN; assay type: biochemical
[2] = molecular target: T2, Rpn11 (Homo sapiens, UniProt O00487); experiment: Rpn11 fluorescence polarization assay with 26S proteasome and Ub4-peptide-Oregon Green substrate; assay type: biochemical
Source text: As seens in FIG. 4A) the Rpn11 substrate consisted of six histidine residues followed by four ubiquitin sequences fallowed by the peptide sequence […]. The Oregon Green fluorophore was attached to the cysteine residue via maleimide chemistry. Following cleavage of the substrate by Rpn11, the product […] coupled to Oregon Green was released. The change in molecular weight of Oregon Green containing protein was detected by fluorescence polarization. The Rpn11 reaction can he inhibited with compound 1. In FIG. 4(B) progress curves for product generation by 26S proteasome (which contains Rpn11). Rpn11 cleaves the substrate immediately after the fourth ubiquitin (Ub). 5 nM Ub-Ub-Ub-Ub-peptide-oregon green substrate was incubated with 0.5 nM purified 26S proteasome for 120 min at room temperature. As labeled peptide is liberated, the fluorescence polarization diminishes. The cleavage reaction can be inhibited by the o-phenanthroline. In FIG. 4(C-E) dose-response curve for inhibition of Rpn11 by compound 1 (C), 3-hydroxy-4H-pyran-4-thione (D) or o-phenanthroline (E) were generated by adding varying doses of compound to the reaction mixture. At 120 minutes, fluorescence polarization was measured. Percent activity was calculated based on the amount of enzyme activity observed in the absence of added test agent.
An 8-point compound 001 dose titration curve was performed, by incubating Rpn11-containing 26S proteasome, Rpn11 substrate and compound (dose range 50 μM to 0.1 μM) and monitoring fluorescence polarization as per BIOEXAMPLE 4. Remaining activity as compared to DMSO control (% activity) was calculated and plotted versus compound 1 concentration and the curve was fit to a four-parameter fit model to obtain an IC50 value.

[3] = system: neddylated forms of Cullins 1, 2, and 4A; experiment: Accumulation of neddylated Cullins 1, 2 and 4A in HEK-293T cells (immunoblot); assay type: cell-based, human; conditions: 15 min at 37° C.
Protocol: Test compounds include Compound 1 (“Test Compound 1”), Compound 101 (“Test Compound 2”), and MLN4924 (“Comparison Compound”; Sulfamic acid, [(1S,2S,4R)-4-[4-[[(1S)-2,3-dihydro-1H-inden-1-yl]amino]-7H-pyrrolo[2,3-d]pyrimidin-7-yl]-2-hydroxycyclopentyl]methyl ester; CAS Reg. No. 905579-51-3). Human HEK-293T cells were treated with 100 μM compound 1, 100 μM compound 101, 3 μM MLN4924 or 1% DMSO for 15 min. at 37° C. At the end of the incubation, cells were harvested and lysed. All cell lysates were fractionated by SDS-PAGE, proteins were transferred to nitrocellulose, and Cu11, Cu12 and Cu14 was detected by immunoblotting with an antibody that recognizes human Cu11, Cu12 or Cu14. Cu11-N8: human Cu11 modified with Nedd8. Cu12-N8: human Cu12 modified with Nedd8. Cu14-N8: human Cu14 modified with Nedd8.

[4] = molecular target: T2, Rpn11; experiment: Ub^G76V-GFP proteasome reporter degradation in HeLa cells (Rpn11 activity in cells); assay type: cell-based; conditions: cycloheximide, 90 min at 37° C., quantitative fluorescence microscopy, read-out: IC50, level of remaining Ub^G76V-GFP
[5] = molecular target: T3, AMSH-LP (Homo sapiens, UniProt Q96FJ0); experiment: AMSH-LP assay: di-ubiquitin K63 cleavage to mono-ubiquitin (SDS-PAGE, anti-ubiquitin blot); assay type: biochemical; conditions: AMSH-LP 50 nM, di-ubiquitin K63 1 μM, 20 hours at room temperature; read-out: approximate IC50, mono-ubiquitin product formation
T3 sequence (Q96FJ0 1-436): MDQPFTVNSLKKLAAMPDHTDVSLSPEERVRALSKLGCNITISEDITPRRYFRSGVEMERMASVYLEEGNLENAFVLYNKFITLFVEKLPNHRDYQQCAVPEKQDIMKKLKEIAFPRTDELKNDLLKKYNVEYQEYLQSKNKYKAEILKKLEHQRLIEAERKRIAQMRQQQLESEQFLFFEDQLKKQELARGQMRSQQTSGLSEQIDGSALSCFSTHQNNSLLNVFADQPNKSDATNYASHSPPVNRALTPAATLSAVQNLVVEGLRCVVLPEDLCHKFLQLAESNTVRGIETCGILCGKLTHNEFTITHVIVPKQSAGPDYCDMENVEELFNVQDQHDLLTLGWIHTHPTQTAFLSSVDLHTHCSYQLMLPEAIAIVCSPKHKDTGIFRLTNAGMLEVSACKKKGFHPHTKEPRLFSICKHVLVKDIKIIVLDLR
Source text: Formation of product is dependant on the presence of AMSH-LP (lane 1).

[6] = molecular target: T1, CSN5; experiment: Cell-based Csn5 assay: Cul1 neddylation in HEK-293T cells (immunoblot); set-up: endogenous in cells; host or cells: HEK-293T; conditions: 30 min, increasing concentration
Protocol: Because cullins undergo a dynamic cycling between neddylated and unneddylated forms by the action of NAE1 and Csn5, respectively, a Csn5 inhibitor will block the removal of Nedd8 from cullin resulting in the accumulation of Nedd8-cullin. HEK-293T cells were treated with compound 001 for 30 min., washed with PBS and lysed in gel loading buffer. Clarified cell lysates (40 μg) were electrophoresed, transferred to nitrocellulose and immunoblotted with α-Cu11 or α-actin sera.

[7] = Bioexample 16 table, read-out: CSN5 IC50
[8] = Bioexample 16 table, read-out: RPN11 IC50
[9] = 0.5 nM 26S proteasome, 5 nM substrate, 120 min, room temperature (FIG. 4C-E), read-out: IC50, inhibition of Rpn11

SMILES | IC50 [1, 7] [nM] | IC50 [2, 8] [nM] | IC50 [2, 9] [nM] | IC50 [4] [nM] | other results
Cc1cnc2c(S)cccc2c1 [Compound 4] | 7700 | 1300 | – | – | –
Cc1ccc2cccc(S)c2n1 [Compound 3, 8-SH-2-Me-quinoline] | – | 6100 | – | – | –
Oc1coccc1=S [3-hydroxy-4H-pyran-4-thione, reference compound] | – | – | 600 | – | –
Cc1ccc(S)c2ncccc12 [Compound 6] | 4100 | 1100 | – | – | –
NS(=O)(=O)OC[C@@H]1C[C@@H](n2ccc3c(N[C@H]4CCc5ccccc54)ncnc32)C[C@@H]1O [MLN4924, Sulfamic acid, [(1S,2S,4R)-4-[4-[[(1S)-2,3-dihydro-1H-inden-1-yl]amino]-7H-pyrrolo[2,3-d]pyrimidin-7-yl]-2-hydroxycyclopentyl]methyl ester, reference compound] | – | – | – | – | conversion of Cu11, Cu12 and Cu14 to Nedd8-modified species ([3]; 3 μM): remain in the non-neddylated form
Cc1ccnc2c(S)cccc12 [Compound 5] | 22200 | 2500 | – | – | –
Cc1cc(S)c2ncccc2c1 [Compound 7] | – | 800 | – | – | –
c1cnc2c(c1)ccc1cccnc12 [o-phenanthroline, reference compound] | – | – | 158000 | 590000 | –
CC(C)C[C@@H](C=O)NC(=O)[C@H](CC(C)C)NC(=O)[C@H](CC(C)C)NC(=O)OCc1ccccc1 [MG132, N-(benzyloxycarbonyl)leucinylleucinylleucinal] (Cbz-Leu-Leu-Leu-aldehyde) | – | – | – | 230 | –
Sc1cccc2cccnc12 [Compound 1, 8-quinolinethiol] | – | 1100 | 3300 | 120 | IC50 [5]: ~1600 nM; IC50 ([1]; Cop9 signalsome, 8-point titration 100 μM to 0.05 μM, four-parameter fit (FIG. 11), read-out: IC50 on Csn5): 6500 nM; IC50 ([1]; purified CSN, fluorescence polarization, dose escalation (FIG. 2B), read-out: IC50, CSN release of Nedd8OG from Cu11-Nedd8OG): 3800 nM; shift of Cu11 between unneddylated and neddylated form [6]: shifts the Cu11 population from the undeddylated to the neddylated form; conversion of Cu11, Cu12 and Cu14 to Nedd8-modified species ([3]; 100 μM): largely modified with Nedd8
